Test results published in article PMC8587101, “Design and Synthesis of Novel Betulin Derivatives Containing Thio-/Semicarbazone Moieties as Apoptotic Inducers through Mitochindria-Related Pathways” (Molecules, 2021).
Several values for one entry are separate records, joined by “and”; a condition that tells them apart may be missing. Equal entries are not always repeated. Entries after “also recorded” stand apart in the source; their conditions may differ. Where two headings read alike, the source gives them in different places.

Legend:
[1] = system: human breast carcinoma cells (MCF-7); test: MTT cytotoxicity assay, MCF-7; format: cell-based; settings: for IC50: MTT, 48 h, means ± SD of three experiments, read-out: IC50 (μM) MCF-7
MCF-7 cells [2] = test: Mitochondrial membrane potential (MMP) assay, JC-1, flow cytometry; format: cell-based, human; settings: 24 h
Protocol: Mitochondria dysfunction has been proven to be an important role in inducing apoptosis in tumor cells. The loss of mitochondrial membrane potential (MMP) has been considered to be an early manifestation of mitochondrial dysfunction in apoptotic process. Thus, we tried to explore the contribution of mitochondria in compound-8f-induced apoptosis in MCF-7 cells. JC-1 cationic dye is an ideal MMP-sensitive probe, which can measure the MMP lost by flow cytometry.
MCF-7 cells were cultured into 12-well plates at a concentration of 1 × 10^6 cells/well of the RPMI-1640 medium. Then, cells were co-cultured with compound 8f (0, 3, 6 and 12 µM) for 24 h. After treatment, cells were stained with 3 µM cationic dye JC-1 at room temperature in the dark for 30 min according to the manufacturer’s instructions (BD Biosciences, San Jose, CA, USA). Finally, cells were harvested and washed with PBS twice, and then the results were recorded by flow cytometry analysis.

[3] = system: human lung carcinoma cells (A549); test: MTT cytotoxicity assay, A549; format: cell-based; settings: A549, MTT, 48 h, means ± SD of three experiments, read-out: IC50 (μM) A549
MCF-7 cells [4] = test: Annexin V-FITC/PI apoptosis analysis by flow cytometry; format: cell-based, human; settings: 24 h, control 10.54%
Protocol: In order to confirm whether tumor cell apoptosis was induced by compound 8f in tumor cells, the MCF-7 cells were stained in sequence with Annexin V-FITC (AV) and propidium iodide (PI). MCF-7 cells deal with compound 8f by gradient concentration (0, 3, 6 and 12 μM) for 24 h, and the rates of apoptotic cells were detected by flow cytometry.
Apoptosis was determined by staining cells with an Annexin VFITC/PI detection kit (BD Biosciences, San Jose, CA, USA). Briefly, MCF-7 cells were seeded on six-well plates (6 × 10^4 cells/mL) and incubated with compound 8f (0, 3, 6 and 12 μM) for 24 h. Cells were washed twice with cold PBS and resuspended in 500 μL of 1 × binding buffer, and then 10 μL of Annexin V-FITC and 5 μL of PI were applied to stain the cells for 15 min at room temperature in the dark. The status of stained cells was analyzed using a flow cytometer (BD, FACSCalibur, San Jose, CA, USA).

MCF-7 cells [5] = test: AO/EB staining, fluorescence microscope; format: cell-based, human; settings: MCF-7, 0, 3, 6 and 12 μM, 24 h
Protocol: Firstly, the Acridine Orange/Ethidium Bromide (AO/EB) staining of MCF-7 cells treated with compound 8f was observed under a fluorescence microscope. A large number of normal cells in the control group were stained green and their nuclei were intact.
The MCF-7 cells in the logarithmic growth phase were cultured into 6-well plates (5 × 10^4 cells/mL). The cells incubated for overnight at 37 °C in an atmosphere of 5% CO2. Then the MCF-7 cells were treated with compound 8f (0, 3, 6 and 12 μM) for 24 h. The cover slip with monolayer MCF-7 cells was inverted on the glass slide with 20 μL of AO/BE stain (100 μg/mL). The fluorescence intensity was read using a fluorescence microscope (Zeiss, Oberserve A1, Oberkochen, Germany).

MCF-7 cells [6] = test: Western blot of apoptosis-related proteins; format: cell-based, human; settings: MCF-7, 3, 6 and 12 µM, 24 h, GAPDH internal control
Protocol: To further explore the molecular mechanism of compound-8f-induced apoptosis in MCF-7 cells, the expression levels of the related apoptotic proteins Bcl-2, Bax, P53, caspase-3, caspase-9, cleaved caspase-3, cleaved caspase-9 and cytochrome c under treatment of compound 8f were carried out. MCF-7 cells were co-cultured with compound 8f at the gradient concentrations of 3, 6 and 12 µM for 24 h, and the related apoptotic proteins expression levels were tested by means of Western blotting. The GAPDH expression level was used as an internal control group. […] Meanwhile, the cleavage forms of the caspase proteins were evaluated (Figure 10). Compound 8f could also activated the expression levels of both cleaved caspase-3 and cleaved caspase-9 in a dose-dependent manner.
After treatment with compound 8f (0, 3, 6 and 12 µM), MCF-7 cells were harvested and lysed in RIPA buffer and boiled for 10 min at 100 °C. Equal amount of protein ([…]) were separated on a 10% SDS-PAGE gel and transferred to nitrocellulose membranes. The membranes were blocked with 5% BSA and probed with a 1:1000 dilution of primary antibody against Cl-caspase-3 (Cell Singaling Technology, Inc., Danvers, MA, USA), Cl-caspase-9 (Cell Singaling Technology Inc), P53 (Cell Singaling Technology, Inc; Danvers, MA, USA), Bcl-2 (Santa Cruz Biotechnology, Inc; Santa Cruz, CA, USA), Cytochrome c (Proteintech Group, Inc; Rosemont, IL, USA) and Bax (Proteintech Group, Inc; Rosemont, IL, USA). Then, the membranes were incubated with a 1:5000 dilution of horseradish peroxidase-conjugated secondary antibody for 2 h. Positive bands were visualized on a X-ray film using an enhanced chemiluminescence system (Kodak).

[7] = system: normal human gastric epithelial cells (GES-1); test: MTT cytotoxicity assay, GES-1 normal cells; format: cell-based; settings: GES1, MTT, 48 h, normal cells, means ± SD of three experiments, “-” not active, read-out: IC50 (μM) GES-1
MCF-7 cells [8] = test: ROS level assay, H2DCFDA, flow cytometry; format: cell-based, human; settings: MCF-7, 12 μM, 24 h; control group 2.61%
Protocol: In the past years, many studies reported that intracellular amounts of reactive oxygen species (ROS) play an important role in some kinds of biological processes in tumor cells. […] Therefore, we explored if ROS stimulated by compound 8f induced apoptosis in MCF-7 cells. Cells were treated with compound 8f by gradient concentration (0, 3, 6 and 12 μM) for 24 h and then using H2DCFDA staining analysis by flow cytometry.
MCF-7 cells were cultured into 12-well plate at a concentration of 1 × 10^6 cells/well for 24 h of the RPMI-1640 medium with 10% FBS. Then, cells were co-cultured with compound 8f (0, 3, 6 and 12 µM) for 24 h. Then, the MCF-7 cells were stained with 5 µM H2DCFDA solution (400 µL/well) at room temperature in the dark for 30 min. The cells were harvested and washed with PBS twice according to the manufacturer’s instructions (Thermo Fisher Scientific, Waltham, MA, USA). The results were obtained by flow cytometry.

[9] = system: human colorectal cells (HCT-116); test: MTT cytotoxicity assay, HCT-116; format: cell-based; settings: HCT-116, MTT, 48 h, means ± SD of three experiments, read-out: IC50 (μM) HCT-116

SMILES: C=C(C)[C@@H]1CC[C@]2(/C=N/NC(=S)Nc3cccc(Cl)c3)CC[C@]3(C)[C@H](CC[C@@H]4[C@@]5(C)CC[C@H](O)C(C)(C)[C@@H]5CC[C@]43C)[C@@H]12 [Compound 8f, Lup-20(29)-ene-3β-ol-28-N-(3-chlorophenyl)thiosemicarbazide]
- IC50 ([1]; Homo sapiens, MCF7, 48 h): < 10 µM
- fold more potent than betulin ([1]; MCF-7, ratio of IC50 values): 3.32 fold
- IC50 [1]: 5.96 µM and 5.86 µM
- JC-1 fluorescence intensity (upper quadrant) (MCF-7 cells [2]; MCF-7, 3 μM): 79.00%
- JC-1 fluorescence intensity (upper quadrant) (MCF-7 cells [2]; MCF-7, 12 μM): 47.06%
- IC50 [3]: 10.4 ± 0.74 µM
- percentage of apoptosis cells (MCF-7 cells [4]; MCF-7, 3 μM): 13.20%
- percentage of apoptosis cells (MCF-7 cells [4]; MCF-7, 12 μM): 48.66%
- AO/EB staining, cell morphology (MCF-7 cells [5]): some cells showed apoptotic characteristics
- expression level of Bax (MCF-7 cells [6]): upregulation; also recorded: increased
- expression level of Bcl-2 (MCF-7 cells [6]): downregulation; also recorded: suppressed
- expression level of P53 (MCF-7 cells [6]): upregulation; also recorded: increased
- expression level of caspase-3 (MCF-7 cells [6]): activation; also recorded: activated
- expression level of caspase-9 (MCF-7 cells [6]): activation; also recorded: activated
- expression level of cleaved caspase-3 (MCF-7 cells [6]): activation; also recorded: activated
- expression level of cleaved caspase-9 (MCF-7 cells [6]): activation; also recorded: activated
- expression level of cytochrome c (cyt-c) (MCF-7 cells [6]): upregulation; also recorded: increased
- IC50 [7]: 215 ± 6.28 µM
- generation of ROS level (MCF-7 cells [8]): 75.22%
- IC50 [9]: 24.7 ± 0.9 µM
